{"source": "patent US5346812A", "about": "“Teratogen assay” (priority 1992, dated 1994)", "key": {"[1]": {"system": "23 kDa heat shock protein gene promoter (hsp23-β-galactosidase hybrid gene)", "test": "Drosophila heat shock hybrid gene expression assay (colorimetric beta-galactosidase assay) in primary embryonic cells from transformed flies", "conditions": "for FOLD INDUCTION OF B-GAL ACTIVITY: Experiment I, strain 700.2 embryonic cells, relative to nontreated cells", "text": "A representative hybrid gene in accordance with the above description includes a 23 kDa heat shock protein gene fragment beginning at the Pst I site 1.5 kb upstream from and extending through the transcription start site and the entire RNA leader region to a Pvu II site at codon 45 of the 23 kDa protein coding sequence, inserted upstream from a truncated (at codon 7 or 8) E. coli β-galactosidase gene. It addition, a 2.4-kb-long segment containing 3' nontranslated and nontranscribed sequences from a D. melanogaster 70 kDa heat shock protein gene is placed downstream from the β-galactosidase gene.\nFor the experiments with teratogens described below, only the 700 lines (see Table 2) were used. These lines carry a hybrid gene controlled by a 554 nucleotide-long segment of the 23 kDa heat shock protein gene promoter.\nPreparation of embryos, cultures of primary cells, and incubation with teratogens\n1. A creamy paste of yeast is placed on a piece of wet filter paper and such coated paper: deposited on 150 mm food plates. Embryos are then collected on these plates for 3 hours (inside a large fly cage). (For additional details, see the appended Materials and Methods section.)\n2. The plates with the embryos are incubated further for 3.5 hours (embryos will reach the gastrulation stage).\n3. The filter paper containing yeast is discarded. The plates are flooded with water, the embryos are brushed down, passed through a 1 mm (pore size) mesh and then collected on a 90 μm mesh.\n4. Embryos are washed extensively with water. Subsequently they are picked up with a spatula and are placed into a solution of 10 ml chlorox/10 ml ethanol (95%). After a brief incubation, the embryos are transferred to a sintered glass funnel attached to a vacuum line and are washed with several volumes of sterile distilled water, No more than 2 minutes should elapse between the first exposure of the embryos to chlorox-ethanol solution and the beginning of the wash steps.\n5. The embryos are then washed in 6 ml of culture medium. It is important to note that the embryos are not allowed to dry out during the wash procedure.\n6. The wet embryos are transferred with a blunt spatula into a homogenizer containing 7 ml of culture medium. (Alternatively, they can be washed down into the homogenizer with medium.)\n7. Three gentle passes are made with the loose fitting pestle.\n8. Cell aggregates are broken up by repeated pipetting with a 1 ml pipette, and the cell suspension is passed through a 53 μm mesh.\n9. The filtrate is collected in a 15 ml sterile disposable centrifuge tube and spun at 1800 rpm for 4 minutes (at room temperature).\n10. The supernatant is decanted, and the cells are washed once more with 4 ml of medium.\n11. The cells are finally suspended in 4 ml medium by repeated pipetting with a 1 ml pipette and are counted on a hemocytometer.\n12. The cells are plated in 35 mm dishes at a density of 3.2×10^6cells per 2 ml of medium.\n13. Forty-five minutes later the medium is removed from each dish, and 2 ml of fresh medium containing the chemical to be tested for teratogenicity is added. The culture is then incubated at 22° C. for 20 hrs. […] The cells are subsequently processed for the β-galactosidase assay (see below).\n1. Cells in 35 mm dishes are washed once with phosphate-buffered saline and are then transferred to 15 ml centrifuge tubes.\n2. The cells are collected by centrifugation (clinical centrifuge, 2000 rpm, 5 min) and are taken up in 350 μl of Z buffer (defined below) containing 0.5% of Nonidet NP40. The cells are lysed by repeated pipetting. Lysates are transferred to 1.5 ml Eppendorf tubes.\n3. After a 5 minute spin (in the Eppendorf centrifuge) the supernatants are transferred to another set of tubes.\n4. To 200 μl of this extract, 275 μl of substrate solution ONPG (4 mg/ml) in Z-buffer is added. The assays are run with straight as well as with diluted extract samples.\n5. The reactions are incubated at 37° C. for 30 min."}, "[2]": {"conditions": "shown in animal experiments; cited from earlier work"}, "[3]": {"system": "23 kDa heat shock protein gene promoter (hsp23-β-galactosidase hybrid gene) in S3 cells", "test": "Hybrid gene (23 kDa heat shock protein-β-galactosidase) activity in transfected S3 cells", "assay_type": "cell-based, Drosophila melanogaster", "conditions": "for E. coli-specific B-galactosidase, + ecdysterone: 3 μM, ELISA", "text": "The Drosophila melanogaster 23 kDa heat shock protein gene has been cloned and characterized by Voellmy et al. (Cell 23:261-270, 1981). Segments containing extensive 5' nontranscribed sequences from the 23 kDa heat shock protein gene, the RNA leader region, and part of the protein-coding region were linked in frame to an E. coli β-galactosidase gene. The resulting constructs encode a hybrid protein with β-galactosidase activity that is made under the control of the linked heat shock gene sequences (Lawson, R., et al., Dev. Biol. […], 1985). These constructs were introduced into Drosophila melanogaster S3 cells (an established cell line) by transfection (Lawson, R., et al., Mol. Gen. Genet. 198:116-124, 1984).\nThe construction of 23 kDa heat shock protein-β-galactosidase hybrid genes had been described (Lawson, R., et al., Dev. Biol. 110:321-330, 1985). The structure of a representative construct, p523/35, is shown in FIG. 4 (modified from Mestril, R., et al., EMBO J. 5(7):1667-1673, 1986). […] Hybrid gene activity was assessed in cell extracts both by a colorimetric enzymatic assay and by ELISA using antibodies specific for E. coli β-galactosidase (Lawson, R., et al., Dev. Biol. 110:321-330, 1985).\nDerivatives of this basic construct that contained 23 kDa heat shock gene promoter sequences of different lengths were prepared, and their activity was tested using heat shock in transfected S3 cells (Mestril, R., et al., EMBO J. 4:2971-2976, Mestril, R., et al., EMBO J. 5:1667-1673, 1986).\nA list of the cp20.1 derivatives of hybrid genes with 23 kDA heat shock protein gene promoter segments of different lengths is shown in Table 1. The functionality of the genes was tested in cultured Drosophila melanogaster S3 cells. Transfected cells were either heat-treated (not shown), exposed for one day at 3 μM ecdysterone, or not treated. Levels of β-galactosidase in extracts were measured by the ELISA procedure described in Mestril et al., EMBO J. 5:1667-1673, 1986.\nLevels of Bgalactosidase were measured in cell extracts using the ELISA\nprotocol described in Mestril et al., 1986 (Mestril,R., Schiller,P.,\nAmin,J., Klapper,H., Ananthan,J. and Voellmy,R. (1986) EMBO J."}, "[4]": {"conditions": "use by pregnant women; cited from earlier work"}, "[5]": {"system": "23 kDa heat shock protein gene promoter (hsp23-β-galactosidase hybrid gene) in S3 cells", "conditions": "following exposure to ecdysterone; Lawson et al. 1985; Mestril et al.; cited from earlier work"}, "small heat shock genes": {"system": "small heat shock genes", "conditions": "ecdysterone added to the medium; Ireland et al. 1982; cited from earlier work"}, "[6]": {"conditions": "Drosophila melanogaster, 20 h, read-out: FOLD INDUCTION OF B-GAL ACTIVITY"}, "[7]": {"conditions": "Drosophila melanogaster, 20 h, read-out: Fold Induction of B-Gal Activity"}}, "note": "“Also recorded” adds a separate entry of the source. Like-named read-outs stand apart in the source and are kept apart here."}
{"smiles": "Nc1ncn([C@H]2C[C@H](O)[C@@H](CO)O2)c(=O)n1", "note": "[5-DEOXY-2' AZACYTIDINE]", "values": [{"measurement": "FOLD INDUCTION OF B-GAL ACTIVITY", "setting": "[1]; 0.01 mM, 20 hrs", "value": 4, "unit": "FOLD"}]}
{"smiles": "CC(=O)Oc1ccccc1C(=O)O", "note": "[ACETYL SALICYCLIC ACID]", "values": [{"measurement": "FOLD INDUCTION OF B-GAL ACTIVITY", "setting": "[1]; 1.0 mM, 20 hrs", "value": 1.5, "unit": "FOLD"}, {"measurement": "CLASS (teratogen T / nonteratogen NT)", "setting": "[2]", "value": "weak T"}]}
{"smiles": "O=[As](O)(O)O", "note": "[ARSENATE]", "values": [{"measurement": "FOLD INDUCTION OF B-GAL ACTIVITY", "setting": "[1]; 0.2 mM, 20 hrs", "value": 8, "unit": "FOLD"}]}
{"smiles": "O=c1ccc2ccccc2o1", "note": "[COUMARIN]", "values": [{"measurement": "hybrid gene activity in S3 cells (in words)", "setting": "[3]", "value": "did not induce hybrid gene activity"}, {"measurement": "fold induction at 1000 µM", "setting": "[1]; [6]", "value": 5}]}
{"smiles": "Cn1c(=O)c2c(ncn2C)n(C)c1=O", "note": "[Caffeine]", "values": [{"measurement": "fold induction at 1000 µM", "setting": "[1]; [7]", "value": 1.02}]}
{"smiles": "[Cl][Cd][Cl]", "note": "[Cd Cl2]", "values": [{"measurement": "FOLD INDUCTION OF B-GAL ACTIVITY", "setting": "[1]; 0.25 mM, 20 hrs", "value": 7, "unit": "FOLD"}]}
{"smiles": "CC/C(=C(/CC)c1ccc(O)cc1)c1ccc(O)cc1", "note": "[DIETHYL STILBOSTEROL]", "values": [{"measurement": "fold induction at 10 µM", "setting": "[1]; [6]", "value": 7}]}
{"smiles": "C[S+](C)[O-]", "note": "[DIMETHYL SULFOXIDE]", "values": [{"measurement": "fold induction at 1000 µM", "setting": "[1]; [6]", "value": 1}]}
{"smiles": "O=C1NC(=O)C(c2ccccc2)(c2ccccc2)N1", "note": "[DIPHENYLHYDANTOIN, DIPHENYL-HYDANTOIN]", "values": [{"measurement": "fold induction at 100 µM", "setting": "[1]; [6]", "value": 2}]}
{"smiles": "CCO", "note": "[ETHYL ALCOHOL]", "values": [{"measurement": "fold induction at 160000 µM", "setting": "[1]; [6]", "value": 1.2}]}
{"smiles": "[Cl][Hg][Cl]", "note": "[Hg Cl2]", "values": [{"measurement": "FOLD INDUCTION OF B-GAL ACTIVITY", "setting": "[1]; 0.005 mM, 20 hrs", "value": 3, "unit": "FOLD"}]}
{"smiles": "[Pb]", "note": "[Lead]", "values": [{"measurement": "Fold Induction of B-Gal Activity", "setting": "[1]; Experiment II, 2.5 mM, 20 hrs, relative to nontreated cells (see Table 3)", "value": 15.78, "unit": "Fold"}, {"measurement": "synthesis of β-galactosidase in primary embryonic cells (in words)", "setting": "[1]; primary embryonic cells from transformed flies", "value": "directs the synthesis of β-galactosidase"}]}
{"smiles": "CC(=O)[C@H]1CC[C@H]2[C@@H]3CCC4=CC(=O)CC[C@]4(C)[C@H]3CC[C@]12C", "note": "[PROGESTERONE]", "values": [{"measurement": "fold induction at 10 µM", "setting": "[1]; [6]", "value": 1}]}
{"smiles": "CC1=C(/C=C/C(C)=C/C=C/C(C)=C/C(=O)O)C(C)(C)CCC1", "note": "[RETINOIC ACID (ALL TRANS)]", "values": [{"measurement": "fold induction at 50 µM", "setting": "[1]; [6]", "value": 5}]}
{"smiles": "O=C1CCC(N2C(=O)c3ccccc3C2=O)C(=O)N1", "note": "(stereo not shown) [Thalidomide]", "values": [{"measurement": "synthesis of β-galactosidase in primary embryonic cells (in words)", "setting": "[1]", "value": "directs the synthesis of β-galactosidase"}, {"measurement": "fold induction at 1000 µM", "setting": "[1]; [7]", "value": 2.73}, {"measurement": "babies suffering from phocomelia", "setting": "[4]", "value": "~10,000 babies"}]}
{"smiles": "CN1C(=O)CN=C(c2ccccc2)c2cc(Cl)ccc21", "note": "[Valium]", "values": [{"measurement": "fold induction at 1000 µM", "setting": "[1]; [7]", "value": 6.5}]}
{"smiles": "CC(C)(O)CC[C@@H](O)[C@](C)(O)[C@H]1CC[C@@]2(O)C3=CC(=O)[C@@H]4C[C@@H](O)[C@@H](O)C[C@]4(C)[C@H]3CC[C@]12C", "note": "[ecdysterone]", "values": [{"measurement": "E. coli-specific B-galactosidase, + ecdysterone", "setting": "[3]; 63 bp 5' nontranscribed segment, one day, 0.0 without ecdysterone", "value": 0.1}, {"measurement": "E. coli-specific B-galactosidase, + ecdysterone", "setting": "[3]; 147 bp 5' nontranscribed segment, one day", "value": 0.1}, {"measurement": "E. coli-specific B-galactosidase, + ecdysterone", "setting": "[3]; 197 bp 5' nontranscribed segment, one day", "value": 0.1}, {"measurement": "E. coli-specific B-galactosidase, + ecdysterone", "setting": "[3]; 275 bp 5' nontranscribed segment, one day", "value": 0.3}, {"measurement": "E. coli-specific B-galactosidase, + ecdysterone", "setting": "[3]; 295 bp 5' nontranscribed segment, one day", "value": 0.6}, {"measurement": "E. coli-specific B-galactosidase, + ecdysterone", "setting": "[3]; 333 bp 5' nontranscribed segment, one day, 0.0 without ecdysterone", "value": 1.0}, {"measurement": "E. coli-specific B-galactosidase, + ecdysterone", "setting": "[3]; 363 bp 5' nontranscribed segment, one day", "value": 1.1}, {"measurement": "E. coli-specific B-galactosidase, + ecdysterone", "setting": "[3]; 379 bp 5' nontranscribed segment, one day, 0.1 without ecdysterone", "value": 2.0}, {"measurement": "E. coli-specific B-galactosidase, + ecdysterone", "setting": "[3]; 554 bp 5' nontranscribed segment, one day", "value": 1.0}, {"measurement": "hybrid gene activity of constructs (in words)", "setting": "[3]; several constructs, longest promoter segments, 3 μM ecdysterone, one day, inactive in untreated cells", "value": "active"}, {"measurement": "synthesis of β-galactosidase in transfected S3 cells (in words)", "setting": "[5]", "value": "produced E. coli-specific β-galactosidase; also recorded: directed the synthesis of β-galactosidase"}, {"measurement": "fold induction at 10 µM", "setting": "[1]; [6]", "value": 2}, {"measurement": "activation of the small heat shock genes (in words)", "setting": "small heat shock genes", "value": "activation of the genes"}]}
